Source: the supplement of paper PMC11451515

Test system: NOMO1
Assay: cell viability relative to DMSO control; higher = less cytotoxic
Conditions: 48 h
Procedure, shortened: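 Viability values are per-plate percentages of DMSO wells, with background from cell-free wells. Library compounds in DMSO were pin-dosed, in an 11-point threefold series from 47 μM to 0.79 nM, onto NOMO1 or SEM (500 cells/well) or P12-Ichikawa (1000 cells/well) leukemia cells in 1536-well plates (5 μl). Those cells had been adapted for at least four passages in each medium, and CellTiter-Glo One luminescence was read after 48 h at 37°C.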

[1] = HPLM + 10% dialyzed FBS, 0.000781 µM
[2] = HPLM + 10% dialyzed FBS, 0.00234 µM
[3] = HPLM + 10% dialyzed FBS, 0.00702 µM
[4] = HPLM + 10% dialyzed FBS, 0.0211 µM
[5] = HPLM + 10% dialyzed FBS, 0.0632 µM
[6] = HPLM + 10% dialyzed FBS, 0.19 µM
[7] = HPLM + 10% dialyzed FBS, 0.569 µM
[8] = HPLM + 10% dialyzed FBS, 1.71 µM
[9] = HPLM + 10% dialyzed FBS, 5.12 µM
[10] = HPLM + 10% dialyzed FBS, 15.4 µM
[11] = HPLM + 10% dialyzed FBS, 46.1 µM
[12] = RPMI 5 mM glucose + 10% FBS, 0.000781 µM
[13] = RPMI 5 mM glucose + 10% FBS, 0.00234 µM
[14] = RPMI 5 mM glucose + 10% FBS, 0.00702 µM
[15] = RPMI 5 mM glucose + 10% FBS, 0.0211 µM
[16] = RPMI 5 mM glucose + 10% FBS, 0.0632 µM
[17] = RPMI 5 mM glucose + 10% FBS, 0.19 µM
[18] = RPMI 5 mM glucose + 10% FBS, 0.569 µM
[19] = RPMI 5 mM glucose + 10% FBS, 1.71 µM
[20] = RPMI 5 mM glucose + 10% FBS, 5.12 µM
[21] = RPMI 5 mM glucose + 10% FBS, 15.4 µM
[22] = RPMI 5 mM glucose + 10% FBS, 46.1 µM
[23] = RPMI 5 mM glucose + 10% dialyzed FBS, 0.000781 µM
[24] = RPMI 5 mM glucose + 10% dialyzed FBS, 0.00234 µM
[25] = RPMI 5 mM glucose + 10% dialyzed FBS, 0.00702 µM
[26] = RPMI 5 mM glucose + 10% dialyzed FBS, 0.0211 µM
[27] = RPMI 5 mM glucose + 10% dialyzed FBS, 0.0632 µM
[28] = RPMI 5 mM glucose + 10% dialyzed FBS, 0.19 µM
[29] = RPMI 5 mM glucose + 10% dialyzed FBS, 0.569 µM
[30] = RPMI 5 mM glucose + 10% dialyzed FBS, 1.71 µM
[31] = RPMI 5 mM glucose + 10% dialyzed FBS, 5.12 µM
[32] = RPMI 5 mM glucose + 10% dialyzed FBS, 15.4 µM
[33] = RPMI 5 mM glucose + 10% dialyzed FBS, 46.1 µM

Row | SMILES | cell viability [1] [%] | cell viability [2] [%] | cell viability [3] [%] | cell viability [4] [%] | cell viability [5] [%] | cell viability [6] [%] | cell viability [7] [%] | cell viability [8] [%] | cell viability [9] [%] | cell viability [10] [%] | cell viability [11] [%] | cell viability [12] [%] | cell viability [13] [%] | cell viability [14] [%] | cell viability [15] [%] | cell viability [16] [%] | cell viability [17] [%] | cell viability [18] [%] | cell viability [19] [%] | cell viability [20] [%] | cell viability [21] [%] | cell viability [22] [%] | cell viability [23] [%] | cell viability [24] [%] | cell viability [25] [%] | cell viability [26] [%] | cell viability [27] [%] | cell viability [28] [%] | cell viability [29] [%] | cell viability [30] [%] | cell viability [31] [%] | cell viability [32] [%] | cell viability [33] [%]
1 | COc1ccc(C(=O)CC2(O)C(=O)Nc3c(Cl)ccc(Cl)c32)cc1 (stereo unspecified) | 111 | 115 | 128 | 119 | 106 | 119 | 120 | 121 | 77.3 | 34.5 | 26.7 | 95.6 | 108 | 119 | 111 | 109 | 113 | 109 | 123 | 101 | 25.6 | 18.6 | 89.5 | 111 | 110 | 108 | 108 | 120 | 117 | 108 | 99.2 | 26.6 | 22.4
2 | CC(C(=O)O)c1ccc2c(c1)CC(=O)c1ccccc1S2 (stereo unspecified) | 114 | 106 | 113 | 120 | 121 | 128 | 109 | 87.2 | 68.2 | 25.7 | 30.6 | 104 | 115 | 116 | 112 | 107 | 106 | 103 | 103 | 103 | 22.3 | 21.2 | 99.6 | 116 | 94.2 | 105 | 113 | 105 | 103 | 85.3 | 87.7 | 23 | 24
3 | CNC(=O)c1ccc(Nc2cc(Nc3ccccc3[S+](=O)([O-])C(C)C)c3cc[nH]c3n2)nc1 | 98.4 | 105 | 111 | 105 | 116 | 102 | 108 | 91.7 | 77.6 | 70.6 | 31.7 | 98 | 100 | 101 | 103 | 102 | 106 | 108 | 102 | 49.2 | 51.9 | 25.1 | 89.1 | 99.1 | 101 | 106 | 102 | 102 | 109 | 95.7 | 57.2 | 56.7 | 34
4 | NC[C@H]1O[C@H](O[C@@H]2[C@H](O)[C@@H](O[C@H]3O[C@H](CO)[C@@H](O)[C@H](N)[C@H]3O)[C@H](N)C[C@@H]2N)[C@H](O)[C@@H](O)[C@@H]1O | 132 | 122 | 121 | 111 | 135 | 127 | 113 | 129 | 112 | 121 | 109 |  |  |  |  |  |  |  |  |  |  |  | 120 | 128 | 114 | 124 | 113 | 124 | 113 | 123 | 120 | 106 | 112
